Data on 21 compounds can be found in patent publication US9682938B2, “Pyrazolone derivatives as nitroxyl donors” (Cardioxyl Pharmaceuticals, Inc., priority 2014, dated 2017).

Format in all cases: in vitro ADME
Data set [1] is described as follows: In vitro plasma stability, human plasma. As to conditions: male, pH 7.4, 5 μM, 37° C., sampling 0-360 minutes, read-out: T1/2 Human. The procedure:
(§1) Certain compounds from Table 1 were tested for their stability in plasma. The assay system comprised plasma from rat, dog or human (at least 3 donors, male, pooled) at pH 7.4, and (ii) an anticoagulant (sodium heparin or sodium citrate). Each test compound (5 μM) was incubated in plasma at 37° C. on a THERMOMIXER® with shaking. Three samples (n=3) were taken at each of seven sampling time points: 0, 10, 30, 60, 90, 180 and 360 minutes. The samples were immediately combined with 3 volumes (i.e., 3 times the volume of plasma) of acetonitrile containing 1% formic acid and an internal standard to terminate the reaction. AB SCIEX API 3000 LC-MS/MS analysis of the test compounds was performed without a standard curve. Plasma half-lives (T1/2) of the test compounds were determined from graphs of the percent remaining values using the peak area response ratio.

A short description of data set [2]: In vitro plasma stability, dog plasma. The settings on record: male, pH 7.4, 5 μM, 37° C., sampling 0-360 minutes, read-out: T1/2 Dog. Here is the method:
as §1

A short description of data set [3]: In vitro plasma stability, rat plasma. As to conditions: male, pH 7.4, 5 μM, 37° C., sampling 0-360 minutes, read-out: T1/2 Rat. Here is the method:
as §1

With `COc1ccc(C2=NN(C)C(=O)C2(C)NO)cc1F` (stereo not drawn) [Compound 19, 5-(3-fluoro-4-methoxyphenyl)-4-(hydroxyamino)-2,4-dimethyl-2,4-dihydro-3H-pyrazol-3-one], the half-life at 5 μM was determined as 163 min in data set [1], 95 min in data set [2] and 90 min in data set [3].

Regarding `CN1N=C(c2ccccc2[S+](C)[O-])C(C)(NO)C1=O` (stereo not drawn) [Compound 21, 4-(hydroxyamino)-2,4-dimethyl-5-(2-(methylsulfinyl)phenyl)-2,4-dihydro-3H-pyrazol-3-one], the values for the half-life at 5 μM in data set [1], in data set [2] and in data set [3] were 41 min, 24 min and 36 min, respectively.

`CN1N=C(c2cccc(C(F)(F)F)c2)C(C)(NO)C1=O` (stereo not drawn) [Compound 22, 4-(hydroxyamino)-2,4-dimethyl-5-(3-(trifluoromethyl)phenyl)-2,4-dihydro-3H-pyrazol-3-one]: the half-life at 5 μM in data set [1] is 55 min; in data set [2] it was 114 min; in data set [3], 44 min.

Regarding `CC(C)(C)C1=NN(c2ccccc2)C(=O)C1(C)NO` (stereo not drawn) [Compound 23, 5-(tert-butyl)-4-(hydroxyamino)-4-methyl-2-phenyl-2,4-dihydro-3H-pyrazol-3-one], the half-life at 5 μM was 104 min in data set [1], 120 min in data set [2] and 136 min in data set [3].

For `CC1=NN(c2ccccc2)C(=O)C1(NO)c1ccccc1` (stereo not drawn) [Compound 24, 4-(hydroxyamino)-5-methyl-2,4-diphenyl-2,4-dihydro-3H-pyrazol-3-one], the results for the half-life at 5 μM in data set [1], in data set [2] and in data set [3] were 11 min, 16 min and 10 min, respectively.

Consider `CC(C)N1N=C(c2ccccc2F)C(C)(NO)C1=O` (stereo not drawn) [Compound 26, 5-(2-fluorophenyl)-4-(hydroxyamino)-2-iso-propyl-4-methyl-2,4-dihydro-3H-pyrazol-3-one], for which the half-life at 5 μM in data set [1] was found to be 45 min; in data set [2], 65 min; in data set [3] it was 42 min.

Regarding `CC1=NN(C)C(=O)C1(NO)c1ccc(F)cc1` (stereo not drawn) [Compound 27, 4-(4-fluorophenyl)-4-(hydroxyamino)-2,5-dimethyl-2,4-dihydro-3H-pyrazol-3-one], the half-life at 5 μM was 21 min in data set [1], 23 min in data set [2] and 19 min in data set [3].

Regarding `CC1=NN(C(C)C)C(=O)C1(NO)c1ccccc1` (stereo not drawn) [Compound 30, 4-(hydroxyamino)-1-isopropyl-3-methyl-4-phenyl-1H-pyrazol-5(4H)-one], the half-life at 5 μM was determined as 22 min in data set [1], 84 min in data set [2] and 32 min in data set [3].

Turning to `CCC1(NO)C(=O)N(C)N=C1c1ccccc1F` (stereo not drawn) [Compound 31, 4-ethyl-5-(2-fluorophenyl)-4-(hydroxyamino)-2-methyl-2,4-dihydro-3H-pyrazol-3-one], the half-life at 5 μM in data set [1] worked out at 59 min; in data set [2], 201 min; in data set [3], 66 min.

As to `CC(C)N1N=C(c2ccc(S(C)(=O)=O)cc2)C(C)(NO)C1=O` (stereo not drawn) [Compound 32, 4-(hydroxyamino)-2-iso-propyl-4-methyl-5-(4-(methylsulfonyl)phenyl)-2,4-dihydro-3H-pyrazol-3-one], the half-life at 5 μM came out at 100 min in data set [1], 148 min in data set [2] and 64 min in data set [3].

`CC1=NN(c2ccc(S(C)(=O)=O)cc2)C(=O)C1(C)NO` (stereo not drawn) [Compound 33, 4-(hydroxyamino)-4,5-dimethyl-2-(4-(methylsulfonyl)phenyl)-2,4-dihydro-3H-pyrazol-3-one]: the figures for the half-life at 5 μM in data set [1], in data set [2] and in data set [3] were 130 min, 100 min and 175 min, respectively.

For the compound `CN1N=C(c2ccc([S+]([O-])C(F)(F)F)cc2)C(C)(NO)C1=O` (stereo not drawn) [Compound 35, 4-(hydroxyamino)-2,4-dimethyl-5-(4-((trifluoromethyl)sulfinyl)phenyl)-2,4-dihydro-3H-pyrazol-3-one], the half-life at 5 μM in data set [1] turned out to be 76 min; in data set [2], 44 min; in data set [3], 79 min.

Turning to `CSc1ccc(C2=NN(C)C(=O)C2(C)NO)cc1` (stereo not drawn) [Compound 36, 4-(hydroxyamino)-2,4-dimethyl-5-(4-(methylthio)phenyl)-2,4-dihydro-3H-pyrazol-3-one], the half-life at 5 μM in data set [1] worked out at 152 min; in data set [2], 133 min; in data set [3], 300 min.

Regarding `CC1=NN(C)C(=O)C1(NO)c1ccc(S(C)(=O)=O)cc1` (stereo not drawn) [Compound 37, 4-(hydroxyamino)-2,5-dimethyl-4-(4-(methylsulfonyl)phenyl)-2,4-dihydro-3H-pyrazol-3-one], the half-life at 5 μM came to 8 min in data set [1], 3 min in data set [2] and 5 min in data set [3].

Consider `CN1N=C(c2ccc([S+](C)[O-])c(F)c2)C(C)(NO)C1=O` (stereo not drawn) [Compound 38, 5-(3-fluoro-4-(methylsulfinyl)phenyl)-4-(hydroxyamino)-2,4-dimethyl-2,4-dihydro-3H-pyrazol-3-one], for which the half-life at 5 μM in data set [1] stood at 46 min; in data set [2], 33 min; in data set [3], 54 min.

`Cc1cc(C2=NN(C)C(=O)C2(C)NO)ccc1[S+](C)[O-]` (stereo not drawn) [Compound 39, 4-(hydroxyamino)-2,4-dimethyl-5-(3-methyl-4-(methylsulfinyl)phenyl)-2,4-dihydro-3H-pyrazol-3-one]: the half-life at 5 μM is 60 min in data set [1], 59 min in data set [2] and 134 min in data set [3].

In the case of `Cc1cc(C2=NN(C)C(=O)C2(C)NO)ccc1S(C)(=O)=O` (stereo not drawn) [Compound 41, 4-(hydroxyamino)-2,4-dimethyl-5-(3-methyl-4-(methylsulfonyl)phenyl)-2,4-dihydro-3H-pyrazol-3-one], the half-life at 5 μM in data set [1] stood at 54 min; in data set [2] it was 38 min; in data set [3], 64 min.

Take `CO/N=C(\C)C1(NO)C(=O)N(C)N=C1c1ccc(S(C)(=O)=O)cc1` (stereo not drawn) [Compound 42, 4-(hydroxyamino)-4-(1-(methoxyimino)ethyl)-2-methyl-5-(4-(methylsulfonyl)phenyl)-2,4-dihydro-3H-pyrazol-3-one]: the half-life at 5 μM in data set [1] was 6 min; in data set [2] it was 5 min; in data set [3] it was 9 min.

For `COc1ccc(C2(NO)C(=O)N(C)N=C2C)cc1` (stereo not drawn) [Compound 43, 4-(hydroxyamino)-4-(4-methoxyphenyl)-1,3-dimethyl-1H-pyrazol-5(4H)-one], the figures for the half-life at 5 μM in data set [1], in data set [2] and in data set [3] were 35 min, 23 min and 25 min, respectively.

Turning to `CN1N=C(c2cc(F)c(S(C)(=O)=O)c(F)c2)C(C)(NO)C1=O` (stereo not drawn) [Compound 45, 5-(3,5-difluoro-4-(methylsulfonyl)phenyl)-4-(hydroxyamino)-2,4-dimethyl-2,4-dihydro-3H-pyrazol-3-one], the half-life at 5 μM was 40 min in data set [1], 31 min in data set [2] and 25 min in data set [3].

On to `CO/N=C(\C)C1(NO)C(=O)N(C)N=C1c1ccccc1` (stereo not drawn) [Compound 46, 4-(hydroxyamino)-4-(1-(methoxyimino)ethyl)-2-methyl-5-phenyl-2,4-dihydro-3H-pyrazol-3-one], for which the half-life at 5 μM in data set [1] came to 11 min; in data set [2], 12 min; in data set [3], 9 min.
